Assay results from ChEMBL document CHEMBL5678811 (Invest New Drugs, 2014).
The source made the active and inactive calls. No cut-off for these calls is given here.

How the values were obtained:
[1] = Inhibition of recombinant human full-length N-terminal 6His-tagged/beta-subunit N-terminal GST tagged CK2 expressed in Sf21 insect cells at 200 nM using casein kinase 2 substrate peptide relative to control; conditions: condition cancer
COLO 205 [2] = conditions: Homo sapiens, dose 50.0 mg/kg, route po, time > 3.0 weeks
Description: Antitumor activity against human COLO 205 cells xenografted in CD1 nu/nu mouse assessed as tumor growth inhibition at 50 mg/kg, po administered daily via gavage for 2 cycles of over 3 weeks on/1 week rest

[3] = Toxicity in human COLO 205 cells xenografted CD1 nu/nu mouse assessed as decrease in lymphocyte count at 50 mg/kg, po administered daily via gavage for 2 cycles of 3 weeks on/1 week rest and measured on day 41 to 69 by hematological analysis; assay type: organism-based; conditions: in vivo, time 41-69 day
MV4-11 [4] = experiment: Cell cycle arrest in human MV4-11 cells assessed as accumulation of cells at G1-phase at 2.5 uM measured after 24 hrs by propidium iodide staining based flow cytometry (reference value: 61.42%); assay type: functional
[5] = target: Receptor-type tyrosine-protein kinase FLT3 (Homo sapiens) (UniProt P36888); conditions: Sf21, dose 200.0 nM
Sequence of Receptor-type tyrosine-protein kinase FLT3 (Homo sapiens) (P36888 whole entry): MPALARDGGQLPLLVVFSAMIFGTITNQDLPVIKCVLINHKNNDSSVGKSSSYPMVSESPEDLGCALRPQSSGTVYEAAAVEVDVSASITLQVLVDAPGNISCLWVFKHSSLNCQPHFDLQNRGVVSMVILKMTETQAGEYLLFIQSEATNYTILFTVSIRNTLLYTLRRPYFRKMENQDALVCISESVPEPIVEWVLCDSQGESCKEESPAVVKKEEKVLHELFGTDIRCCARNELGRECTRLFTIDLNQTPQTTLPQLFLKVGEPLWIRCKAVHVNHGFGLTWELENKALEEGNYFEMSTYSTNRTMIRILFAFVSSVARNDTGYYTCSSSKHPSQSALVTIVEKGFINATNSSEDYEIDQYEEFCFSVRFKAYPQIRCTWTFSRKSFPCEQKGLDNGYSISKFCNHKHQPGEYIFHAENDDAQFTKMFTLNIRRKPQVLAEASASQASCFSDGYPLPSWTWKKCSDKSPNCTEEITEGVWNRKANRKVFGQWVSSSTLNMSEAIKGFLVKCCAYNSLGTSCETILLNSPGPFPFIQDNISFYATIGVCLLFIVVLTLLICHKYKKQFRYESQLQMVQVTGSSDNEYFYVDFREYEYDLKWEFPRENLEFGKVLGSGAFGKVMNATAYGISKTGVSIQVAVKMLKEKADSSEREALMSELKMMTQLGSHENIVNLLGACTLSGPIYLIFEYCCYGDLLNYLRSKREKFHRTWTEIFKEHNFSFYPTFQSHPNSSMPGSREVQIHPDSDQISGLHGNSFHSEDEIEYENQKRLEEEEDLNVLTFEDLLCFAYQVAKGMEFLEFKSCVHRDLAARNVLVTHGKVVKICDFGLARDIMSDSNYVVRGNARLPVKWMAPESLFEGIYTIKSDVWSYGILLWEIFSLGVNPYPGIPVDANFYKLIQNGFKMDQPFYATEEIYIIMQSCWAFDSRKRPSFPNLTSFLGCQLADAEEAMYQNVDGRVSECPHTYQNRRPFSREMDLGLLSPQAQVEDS
Description: Inhibition of recombinant human N-terminal GST-tagged FLT3 (564 to end residues) expressed in baculovirus infected Sf21 cells at 200 nM using Abltide as substrate relative to control

[6] = target: Homeodomain-interacting protein kinase 2 (Homo sapiens) (UniProt Q9H2X6); conditions: Sf21, dose 200.0 nM
Sequence of Homeodomain-interacting protein kinase 2 (Homo sapiens) (Q9H2X6 whole entry, looked up): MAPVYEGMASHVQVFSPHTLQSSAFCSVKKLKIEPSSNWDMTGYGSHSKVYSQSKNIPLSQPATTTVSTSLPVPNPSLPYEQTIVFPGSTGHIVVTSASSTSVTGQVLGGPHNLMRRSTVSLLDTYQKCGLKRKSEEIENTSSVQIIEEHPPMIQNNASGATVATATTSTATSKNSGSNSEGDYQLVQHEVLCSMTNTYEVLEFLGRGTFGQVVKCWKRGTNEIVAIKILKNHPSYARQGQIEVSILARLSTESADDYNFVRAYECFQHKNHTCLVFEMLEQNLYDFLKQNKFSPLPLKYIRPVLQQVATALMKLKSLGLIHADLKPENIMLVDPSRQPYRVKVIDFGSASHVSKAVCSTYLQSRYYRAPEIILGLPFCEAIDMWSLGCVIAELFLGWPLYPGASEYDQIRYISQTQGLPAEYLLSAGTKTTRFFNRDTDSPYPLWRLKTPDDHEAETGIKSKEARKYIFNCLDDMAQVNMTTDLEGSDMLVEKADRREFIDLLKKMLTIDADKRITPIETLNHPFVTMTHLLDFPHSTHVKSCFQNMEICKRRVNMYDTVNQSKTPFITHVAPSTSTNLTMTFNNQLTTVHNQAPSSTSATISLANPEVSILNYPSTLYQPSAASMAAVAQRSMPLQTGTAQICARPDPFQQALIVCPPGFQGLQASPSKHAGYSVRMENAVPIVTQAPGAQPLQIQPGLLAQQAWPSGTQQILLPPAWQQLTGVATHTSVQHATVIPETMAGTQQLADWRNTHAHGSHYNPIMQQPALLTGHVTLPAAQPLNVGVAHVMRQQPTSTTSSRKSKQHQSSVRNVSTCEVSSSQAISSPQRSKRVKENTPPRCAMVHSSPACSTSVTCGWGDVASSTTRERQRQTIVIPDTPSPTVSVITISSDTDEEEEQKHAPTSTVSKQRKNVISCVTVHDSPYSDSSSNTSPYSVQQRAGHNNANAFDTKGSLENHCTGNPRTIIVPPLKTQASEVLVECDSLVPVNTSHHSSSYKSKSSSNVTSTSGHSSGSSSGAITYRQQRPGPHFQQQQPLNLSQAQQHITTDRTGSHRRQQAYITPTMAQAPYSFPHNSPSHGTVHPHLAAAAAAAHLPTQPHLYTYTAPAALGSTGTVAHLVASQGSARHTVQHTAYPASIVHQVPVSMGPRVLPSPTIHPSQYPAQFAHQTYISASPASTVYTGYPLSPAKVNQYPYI
Description: Inhibition of recombinant human N-terminal His6-tagged HIPK2 (165 to 564 residues) expressed in baculovirus infected Sf21 insect cells at 200 nM using MBP as substrate relative to control

COLO 205 [7] = conditions: Homo sapiens, dose 50.0 mg/kg, route po, time 3.0 weeks
Description: Antitumor activity against human COLO 205 cells xenografted in CD1 nu/nu mouse assessed as tumor growth inhibition at 50 mg/kg, po administered daily via gavage for 2 cycles of 3 weeks on/1 week rest

[8] = Toxicity in human COLO 205 cells xenografted CD1 nu/nu mouse assessed as body weight loss at 25 to 100 mg/kg, po administered once daily via gavage for 21 days measured twice per week during compound dosing; assay type: organism-based; conditions: in vivo, dose 25-100 mg/kg, time 21 day
MV4-11 [9] = experiment: Cell cycle arrest in human MV4-11 cells assessed as accumulation of cells at G1-phase at 0.08 uM measured after 24 hrs by propidium iodide staining based flow cytometry (reference value: 61.42%); assay type: functional
COLO 205 [10] = conditions: Mus musculus, CD1, dose 100.0 mg/kg, route po, time 21.0 day
MV4-11 [11] = experiment: Cell cycle arrest in human MV4-11 cells assessed as accumulation of cells at G1-phase at 0.32 uM measured after 24 hrs by propidium iodide staining based flow cytometry (reference value: 61.42%); assay type: functional
[12] = target: Glycogen synthase kinase-3 beta (Homo sapiens) (UniProt P49841); conditions: dose 200.0 nM
Sequence of Glycogen synthase kinase-3 beta (Homo sapiens) (P49841 whole entry, looked up): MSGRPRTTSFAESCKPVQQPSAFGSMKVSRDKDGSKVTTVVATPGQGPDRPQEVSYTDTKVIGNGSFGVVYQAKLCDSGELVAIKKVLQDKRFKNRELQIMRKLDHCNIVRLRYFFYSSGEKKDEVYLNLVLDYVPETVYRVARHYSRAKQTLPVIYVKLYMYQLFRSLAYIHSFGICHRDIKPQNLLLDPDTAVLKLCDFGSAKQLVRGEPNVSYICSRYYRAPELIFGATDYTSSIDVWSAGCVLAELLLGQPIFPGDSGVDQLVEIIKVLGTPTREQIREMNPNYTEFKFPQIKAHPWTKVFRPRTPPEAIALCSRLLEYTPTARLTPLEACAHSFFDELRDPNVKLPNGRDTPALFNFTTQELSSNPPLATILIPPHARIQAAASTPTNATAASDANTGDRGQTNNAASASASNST
Description: Inhibition of human GSK3beta relative to control

MV4-11 [13] = experiment: Cell cycle arrest in human MV4-11 cells assessed as accumulation of cells at S-phase at […] measured after 24 hrs by propidium iodide staining based flow cytometry (reference value: 23.35%); assay type: functional; conditions: dose 0.625 µM
MV4-11 [14] = experiment: Cell cycle arrest in human MV4-11 cells assessed as accumulation of cells at S-phase at 0.32 uM measured after 24 hrs by propidium iodide staining based flow cytometry (reference value: 23.35%); assay type: functional
COLO 205 [15] = conditions: Mus musculus, CD1, dose 50.0 mg/kg, route po
MV4-11 [16] = experiment: Cell cycle arrest in human MV4-11 cells assessed as accumulation of cells at S-phase at 1.25 uM measured after 24 hrs by propidium iodide staining based flow cytometry (reference value: 23.35%); assay type: functional
COLO 205 [17] = experiment: Antitumor activity against human COLO 205 cells xenografted in CD1 nu/nu mouse assessed as tumor growth inhibition at 25 to 100 mg/kg, po administered once daily via gavage for 21 days measured twice per week during compound dosing; assay type: functional, organism-based; conditions: dose 25-100 mg/kg, time 21.0 day
COLO 205 [18] = conditions: Mus musculus, CD1, dose 25-50 mg/kg, route po
COLO 205 [19] = conditions: Mus musculus, CD1, dose 50.0 mg/kg, route po, time lower 1.0 hrs, time upper […], TDE = time-dependent effect
COLO 205 [20] = conditions: Mus musculus, CD1, dose 50.0 mg/kg, route po; remark: listed apart in the source
[21] = Toxicity in human COLO 205 cells xenografted CD1 nu/nu mouse assessed as change in jejunum histology at 50 mg/kg, po administered daily via gavage for 2 cycles of 3 weeks on/1 week rest and measured on day 41 to 69 by histopathological analysis; assay type: organism-based; conditions: in vivo, time 41-69 day
[22] = Toxicity in human COLO 205 cells xenografted CD1 nu/nu mouse assessed as decrease in lymphocyte count at 50 mg/kg, po administered daily via gavage for 56 days and measured on day 41 to 69 by hematological analysis; assay type: organism-based; conditions: in vivo, 1344 h, time 41-69 day
COLO 205 [23] = conditions: Mus musculus, CD1, dose 50.0 mg/kg, route po; remark: listed apart in the source
COLO 205 [24] = conditions: Mus musculus, CD1, dose 100.0 mg/kg, route po, time 21.0 day; remark: listed apart in the source
Mus musculus = organism: Mus musculus; conditions: CD1, dose 50.0 mg/kg, route po, time 22.0 day
[25] = Toxicity in human COLO 205 cells xenografted CD1 nu/nu mouse at 25 to 100 mg/kg, po administered once daily via gavage for 21 days; assay type: organism-based; conditions: in vivo, dose 25-100 mg/kg, time 21 day
MV4-11 [26] = experiment: Cell cycle arrest in human MV4-11 cells assessed as accumulation of cells at G2/M-phase at 0.16 uM measured after 24 hrs by propidium iodide staining based flow cytometry (reference value: 15.23%); assay type: functional
MDA-MB-231 [27] = experiment: Cell cycle arrest in human MDA-MB-231 cells assessed as accumulation of cells at G2/M-phase at 2.5 uM measured after 24 hrs by propidium iodide staining based flow cytometry (reference value: 11.46%); assay type: functional
MV4-11 [28] = experiment: Cell cycle arrest in human MV4-11 cells assessed as accumulation of cells at G2/M-phase at 2.5 uM measured after 24 hrs by propidium iodide staining based flow cytometry (reference value: 15.23%); assay type: functional
[29] = Toxicity in human COLO 205 cells xenografted CD1 nu/nu mouse assessed as change in cecum histology at 50 mg/kg, po administered daily via gavage for 56 days and measured on day 41 to 69 by histopathological analysis; assay type: organism-based; conditions: in vivo, 1344 h, time 41-69 day
MDA-MB-231 [30] = experiment: Cell cycle arrest in human MDA-MB-231 cells assessed as accumulation of cells at G2/M-phase at 0.16 uM measured after 24 hrs by propidium iodide staining based flow cytometry (reference value: 11.46%); assay type: functional
COLO 205 [31] = conditions: Homo sapiens, dose 50.0 mg/kg, route po, time > 56.0 day
MDA-MB-468 = experiment: Cell cycle arrest in human MDA-MB-468 cells assessed as accumulation of cells at G2/M-phase at 2.5 uM measured after 24 hrs by propidium iodide staining based flow cytometry (reference value: 26.49%); assay type: functional
COLO 205 [32] = conditions: Mus musculus, CD1, dose 50.0 mg/kg, route po; remark: listed apart in the source
[33] = Toxicity in human Calu-6 cells xenografted CD1 nu/nu mouse assessed as body weight loss at 50 mg/kg, po administered once daily via gavage for 21 days measured twice per week during compound dosing in presence of gemcitabine; assay type: organism-based; conditions: in vivo, time 21 day

## CCN1CCN(Cc2ccc(Nc3ncc(F)c(-c4cc(F)c5nc(C)n(C(C)C)c5c4)n3)nc2)CC1 [ABEMACICLIB]
[1]
  inhibition at 0.2 µM: > 90%
COLO 205 [2]
  TGI: Active
[3]
  Activity: Non-Toxic
MV4-11 [4]
  Activity: 94.06%
[5]
  inhibition: > 90%
[6]
  inhibition: > 90%
COLO 205 [7]
  TGI: Active
[8]
  Activity: Non-Toxic
MV4-11 [9]
  Activity: 89.44%
COLO 205 [10]
  inhibition: Active
MV4-11 [11]
  Activity: 95.5%
[12]
  inhibition: > 90%
MV4-11 [13]
  Activity: 3.6%
MV4-11 [14]
  Activity: 2.68%
COLO 205 [15]
  inhibition: inactive
MV4-11 [16]
  Activity: 4.18%
COLO 205 [17]
  TGI: Active
COLO 205 [18]
  inhibition: Dose-Dependent Effect
COLO 205 [19]
  inhibition: Tde
COLO 205 [20]
  inhibition: Active
[21]
  Activity: Non-Toxic
[22]
  Activity: Non-Toxic
COLO 205 [23]
  inhibition: inactive
COLO 205 [24]
  inhibition: Active
Mus musculus
  inhibition: inactive
[25]
  Activity: Non-Toxic
MV4-11 [26]
  Activity: 2.73%
MDA-MB-231 [27]
  Activity: 5.77%
MV4-11 [28]
  Activity: 2.96%
[29]
  Activity: Non-Toxic
MDA-MB-231 [30]
  Activity: 4.02%
COLO 205 [31]
  TGI: Active
MDA-MB-468
  Activity: 28.82%
COLO 205 [32]
  inhibition: Active
[33]
  Activity: Non-Toxic
